Experimental findings from ChEMBL document CHEMBL1133601, “Methyl-substituted dispiro-1,2,4,5-tetraoxanes: correlations of structural studies with antimalarial activity” (J Med Chem, 2000) are described below.

For test [1], the system named is Plasmodium falciparum. Put plainly: In vitro antimalarial activity against Plasmodium falciparum D6 (Sierra Leone). Type of test: functional, organism-based.
The test system of test [2] is Plasmodium falciparum. As to the kind of experiment: In vitro antimalarial activity against Plasmodium falciparum W2 (Indochina). Type of test: functional, organism-based.

`C[C@@H]1CC[C@H]2[C@@H](C)C(=O)O[C@@H]3O[C@@]4(C)CC[C@@H]1[C@]32OO4` [ARTEMISININ]: the IC50 in the test on Plasmodium falciparum [1] was found to be 0.0084 µM; in the test on Plasmodium falciparum [2], 0.0073 µM.
On to `CC1(C)CCCCC12OOC1(CCCCC1(C)C)OO2` (stereo unspecified), for which the IC50 in the test on Plasmodium falciparum [1] and in the test on Plasmodium falciparum [2] was greater than 1 µM throughout.
Consider `C[C@@H]1CCC[C@@H](C)C12OOC1(OO2)[C@@H](C)CCC[C@@H]1C`, for which the IC50 in the test on Plasmodium falciparum [1] and in the test on Plasmodium falciparum [2] was greater than 1 µM each time.
